Test results reported in patent publication US6326139A (priority 1997, dated 2001).
Entries after “also recorded” stand apart in the source; their conditions may differ. Where two headings read alike, the source gives them in different places.

Tests used:
[1] = target: T1, normal BuChE (serum and recombinant) (Homo sapiens, UniProt P06276); experiment: Inhibition by cocaine / α-solanine, normal enzymes; format: biochemical
T1 construct: made in house; host or cells: Xenopus oocytes (recombinant) and normal human serum (native), reported together
T1 sequence (P06276 29-602): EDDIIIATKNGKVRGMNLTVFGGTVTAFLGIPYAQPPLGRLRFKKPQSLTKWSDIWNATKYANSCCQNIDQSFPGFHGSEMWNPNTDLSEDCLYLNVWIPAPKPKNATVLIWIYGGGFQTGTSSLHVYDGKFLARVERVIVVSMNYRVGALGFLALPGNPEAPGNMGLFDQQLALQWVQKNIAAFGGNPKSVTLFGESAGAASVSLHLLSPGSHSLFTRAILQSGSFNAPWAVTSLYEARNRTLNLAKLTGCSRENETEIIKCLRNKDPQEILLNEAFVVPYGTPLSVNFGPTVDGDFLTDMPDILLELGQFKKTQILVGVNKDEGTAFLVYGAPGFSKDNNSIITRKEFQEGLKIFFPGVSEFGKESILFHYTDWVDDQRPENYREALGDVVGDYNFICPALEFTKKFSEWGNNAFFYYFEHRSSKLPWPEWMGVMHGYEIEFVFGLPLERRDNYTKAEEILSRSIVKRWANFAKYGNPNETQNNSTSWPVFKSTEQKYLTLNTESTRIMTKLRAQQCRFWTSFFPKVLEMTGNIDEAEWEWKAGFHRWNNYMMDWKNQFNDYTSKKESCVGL

[2] = target: T2, Rec. BuChE G/G ("atypical") (Homo sapiens, UniProt P06276, D98G); experiment: Inhibition by cocaine / α-solanine, recombinant G/G; format: biochemical
T2 construct: made in house; host or cells: Xenopus oocytes (microinjected in vitro transcribed mRNA)
T2 sequence (P06276 29-602 D98G): as the sequence (P06276 29-602) above, with D70G counted along it

[3] = target: T3, Serum BuChE D/D (normal) (Homo sapiens, UniProt P06276); experiment: Inhibition by cocaine / α-solanine, serum D/D; format: biochemical
T3 construct: with enzyme from normal serum; from tissue; host or cells: human serum, normal homozygote
T3 sequence (P06276 29-602): as the sequence (P06276 29-602) above

[4] = target: T4, Rec. AChE (Homo sapiens, UniProt P22303); experiment: Inhibition by cocaine, recombinant AChE; format: biochemical
T4 construct: made in house; host or cells: Xenopus oocytes (injected ACHE DNA, CMV promoter)
T4 sequence (P22303 32-614): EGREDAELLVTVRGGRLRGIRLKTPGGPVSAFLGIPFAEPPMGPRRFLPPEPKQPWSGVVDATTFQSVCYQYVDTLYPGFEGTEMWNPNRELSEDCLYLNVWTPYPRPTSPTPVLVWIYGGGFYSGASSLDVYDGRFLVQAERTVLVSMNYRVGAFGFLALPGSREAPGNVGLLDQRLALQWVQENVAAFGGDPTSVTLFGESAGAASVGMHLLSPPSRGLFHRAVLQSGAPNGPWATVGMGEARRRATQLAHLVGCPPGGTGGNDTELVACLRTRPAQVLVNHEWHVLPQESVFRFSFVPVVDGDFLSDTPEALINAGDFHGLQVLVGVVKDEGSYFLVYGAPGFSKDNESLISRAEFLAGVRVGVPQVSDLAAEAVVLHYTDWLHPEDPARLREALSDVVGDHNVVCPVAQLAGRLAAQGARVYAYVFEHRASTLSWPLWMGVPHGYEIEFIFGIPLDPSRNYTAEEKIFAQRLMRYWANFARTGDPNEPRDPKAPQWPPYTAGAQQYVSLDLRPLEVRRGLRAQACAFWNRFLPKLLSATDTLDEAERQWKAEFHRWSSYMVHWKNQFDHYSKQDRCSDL

[5] = target: T5, Serum BuChE G/G ("atypical") (Homo sapiens, UniProt P06276, D98G); experiment: Inhibition by cocaine / α-solanine, serum G/G; format: biochemical
T5 construct: applicants prepared serum from an individual who had experienced succinylcholine-induced apnea; from tissue; host or cells: human serum, homozygous carrier of the atypical allele
T5 sequence (P06276 29-602 D98G): as the sequence (P06276 29-602) above, with D70G counted along it

[6] = target: T6, Rec. BuChE D/D (normal) (Homo sapiens, UniProt P06276); experiment: Inhibition by cocaine / α-solanine, recombinant D/D; format: biochemical
T6 construct: made in house; host or cells: Xenopus oocytes (microinjected in vitro transcribed mRNA)
T6 sequence (P06276 29-602): as the sequence (P06276 29-602) above

[7] = test system: H.K., homozygous for the "atypical" allele; settings: in vivo
[8] = target: AChE (E6) (Homo sapiens, UniProt P22303); experiment: Inactivation by carbamate inhibitors, AChE E6; format: biochemical; set-up: made in house; host or cells: Xenopus oocytes injected with ACHE DNA; settings: inhibitor concentration in parentheses in table
Sequence of AChE (E6) (P22303 32-614): as the sequence (P22303 32-614) above
Source text: (§1) reagent concentration (in parentheses), to calculate second order rate

[9] = test system: recombinant human BuChE, normal and "atypical"; experiment: Spontaneous reactivation after complete inhibition, BuChE; format: biochemical
[10] = test system: serum "atypical" BuChE (G/G); experiment: Inactivation of immobilized serum BuChE, "atypical"; format: biochemical, human; settings: for rate of irreversible inactivation versus normal: "atypical" serum BuChE
[11] = target: T7, recombinant normal BuChE (Homo sapiens, UniProt P06276); experiment: Inactivation by carbamate inhibitors, normal BuChE; format: biochemical; settings: for second order rate constant ki for inactivation: recombinant normal BuChE, inhibitor concentration in parentheses in table; for inactivation rate compared with AChE: common BuChE
T7 construct: made in house; host or cells: Xenopus oocytes injected with in vitro transcribed mRNA
T7 sequence (P06276 29-602): as the sequence (P06276 29-602) above
Source text: as §1

[12] = test system: recombinant human AChE; experiment: Spontaneous reactivation after complete inhibition, AChE; format: biochemical
[13] = target: AChE (E5) (Homo sapiens, UniProt P22303); experiment: Inactivation by carbamate inhibitors, AChE E5; format: biochemical; set-up: made in house; host or cells: Xenopus oocytes injected with ACHE DNA; settings: inhibitor concentration in parentheses in table
Sequence of AChE (E5) (P22303-4 with tags, fused parts or gaps limits assumed): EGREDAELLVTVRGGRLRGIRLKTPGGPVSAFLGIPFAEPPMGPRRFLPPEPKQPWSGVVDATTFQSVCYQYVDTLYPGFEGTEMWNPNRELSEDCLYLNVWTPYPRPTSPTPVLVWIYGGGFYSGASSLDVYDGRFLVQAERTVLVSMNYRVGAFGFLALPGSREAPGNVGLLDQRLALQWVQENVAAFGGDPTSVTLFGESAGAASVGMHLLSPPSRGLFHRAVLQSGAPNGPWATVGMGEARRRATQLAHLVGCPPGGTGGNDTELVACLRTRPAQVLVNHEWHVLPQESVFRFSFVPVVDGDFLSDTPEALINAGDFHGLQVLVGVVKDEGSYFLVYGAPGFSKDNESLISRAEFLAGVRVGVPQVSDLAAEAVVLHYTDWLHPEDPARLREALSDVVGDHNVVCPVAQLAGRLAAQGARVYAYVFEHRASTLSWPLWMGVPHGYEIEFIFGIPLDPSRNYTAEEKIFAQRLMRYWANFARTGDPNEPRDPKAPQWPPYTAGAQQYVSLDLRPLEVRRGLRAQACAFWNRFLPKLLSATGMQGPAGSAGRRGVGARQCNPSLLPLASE
Source text: as §1

[14] = test system: ChE; settings: cited from earlier work
[15] = target: T8, "atypical" BuChE (Homo sapiens, UniProt P06276, D98G)
Target sequence in this assay (P06276 29-602 D98G): as the sequence (P06276 29-602) above, with D70G counted along it
Protocol: Recombinant normal and "atypical" BuChE were produced in Xenopus oocytes microinjected with in vitro transcribed BuChEmRNAs prepared from the corresponding cDNA types (Neville et al, 1990a).
Free binding sites were blocked with PBS-T buffer (144 mM NaCl, 20 mM Na phosphate pH 7.4, 0.05% Tween 20 and 0.01% Tymerosal) for 60 minutes at 37° C. […] Plates were washed three times with PBS-T prior to use.
Inactivation and reactivation measurements: Antibody-immobilized enzymes were exposed to the tested anti-ChEs in PBS-T buffer for varying times (0.5 to 80 minutes) following an initial determination of catalytic activities. At the noted time points, plates were washed three times with PBS-T and remaining substrate hydrolysis rates were determined (Loewenstein et al., 1993a). Spontaneous reactivation was measured for immobilized recombinant ChEs following complete inhibition, three washes with PBS-T, and subsequent incubation for the noted time and activity determination.

[16] = test system: "atypical" BuChE in H.K.'s serum; experiment: Serum BuChE hydrolysis, H.K.'s serum; format: biochemical, human
[17] = target: T8, "atypical" BuChE; settings: cited from earlier work
Target sequence in this assay (P06276 29-602 D98G limits assumed): as the sequence (P06276 29-602) above, with D70G counted along it

[18] = target: T8, "atypical" BuChE; settings: cited from earlier work; remark: listed apart in the source
Target sequence in this assay (P06276 29-602 D98G limits assumed): as the sequence (P06276 29-602) above, with D70G counted along it

[19] = test system: AD patients; settings: in vivo; cited from earlier work
[20] = test system: Rec. BuChE D/G (1:1 mixture); format: biochemical, human; settings: read-out: IC50 α-solanine
[21] = test system: Serum BuChE D/G (heterozygote); format: biochemical, human; settings: read-out: IC50 α-solanine
[22] = target: serum and recombinant "atypical" BuChE (Homo sapiens, UniProt P06276, D98G); experiment: Inhibition by cocaine / α-solanine, "atypical" enzymes; format: biochemical; settings: for activity of "atypical" enzyme at high α-solanine: concentrations higher than 5 μM, FIG. 3
Sequence of serum and recombinant "atypical" BuChE (P06276 29-602 D98G limits assumed): as the sequence (P06276 29-602) above, with D70G counted along it

[23] = test system: BuChE in sera from heterozygotes
[24] = test system: THA treated patients; settings: in vivo, cited from earlier work
[25] = test system: patients suffering from mild to moderate AD; settings: cited from earlier work
[26] = test system: PD-patient; settings: in vivo; cited from earlier work
[27] = test system: AChE in term placenta sections; experiment: Cytochemical ChE staining, term placenta; set-up: species or system human; settings: 10^-5 M
[28] = test system: BuChE in early placenta sections; experiment: Cytochemical ChE staining, early placenta; set-up: species or system human; settings: 10^-5 M
[29] = test system: heterozygous serum BuChE (D/G); experiment: Inactivation of immobilized serum BuChE, heterozygote; format: biochemical, human; settings: 30 minutes
[30] = test system: serum normal BuChE (D/D); experiment: Inactivation of immobilized serum BuChE, normal; format: biochemical, human; settings: 30 minutes; normal enzyme
[31] = test system: recombinant human ChEs (all of the examined enzymes); experiment: Spontaneous reactivation after complete inhibition, all enzymes; format: biochemical
[32] = test system: myasthenia gravis patients; settings: in vivo; cited from earlier work

## COC(=O)[C@H]1[C@@H](OC(=O)c2ccccc2)C[C@@H]2CC[C@H]1N2C [cocaine]
[1]
  IC50: 300 µM
[2]
  IC50: 4050 ± 50 µM
[3]
  IC50: 320 ± 80 µM
[4]
  IC50: 3450 ± 2150 µM
[5]
  IC50: 5200 ± 300 µM
[6]
  IC50: 280 ± 20 µM

## CN(C)C(=O)Oc1ccc[n+](C)c1 [pyridostigmine]
[7]
  adverse symptoms: insomnia, weight loss and general fatigue, which worsened consistently, and a deep depression
  time of gradual improvement following discontinuation: 10 weeks
[8]
  second order rate constant ki for inactivation: 367 ± 150 M⁻¹ s⁻¹
[9]; BuChE, pyridostigmine, FIG. 4
  spontaneous reactivation, % of original activity: 10%
[10]
  rate of irreversible inactivation versus normal: much slower than its normal counterpart
[11]
  second order rate constant ki for inactivation: 31.7 ± 3.3 M⁻¹ s⁻¹
[12]; AChE, pyridostigmine, FIG. 4
  spontaneous reactivation, % of original activity: 50%
[13]
  second order rate constant ki for inactivation: 417 M⁻¹ s⁻¹

## CN(C)C(=O)Oc1cccc([N+](C)(C)C)c1 [neostigmine]
[14]
  potency / affinity: potency equal to or greater than physostigmine

## CCCCCCCNC(=O)Oc1ccc2c(c1)C1(C)CCN(C)C1N2C (single isomer, unassigned) [N-heptyl physostigmine]
[8]
  second order rate constant ki for inactivation: 26700 M⁻¹ s⁻¹
[9]; by 20 minutes, normal and "atypical" BuChE
  spontaneous reactivation, % of original activity: 10%
[10]
  rate of irreversible inactivation versus normal: much slower than its normal counterpart
[11]
  inactivation rate compared with AChE: higher than or equal to ACHE
  second order rate constant ki for inactivation: 183000 ± 50000 M⁻¹ s⁻¹
[12]; both AChE forms, N-heptyl physostigmine
  spontaneous reactivation, % of original activity: 5%
[13]
  second order rate constant ki for inactivation: 23300 ± 6700 M⁻¹ s⁻¹
[15]
  inactivation rate of "atypical" BuChE, compared: considerably lower rates

## C[N+](C)(C)CCOC(=O)CCC(=O)OCC[N+](C)(C)C [succinylcholine]
[16]
  hydrolysis of succinylcholine by H.K.'s serum BuChE: totally incapable of hydrolyzing succinylcholine; also recorded: cannot hydrolyze succinylcholine
[17]
  hydrolysis by the affected ("atypical") enzyme: unable to hydrolyze succinylcholine
[17]; listed as succinyl choline
  hydrolysis by the affected ("atypical") enzyme: unable to hydrolyze succinyl choline; also recorded: inability

## CN(C)C(=O)Oc1cc(OC(=O)N(C)C)cc(C(O)CNC(C)(C)C)c1 (centres unmarked) [bambuterol]
[18]
  higher IC50 value, "atypical" versus wild-type: at least 10 fold
  higher Ki value, "atypical" versus wild-type: at least 10 fold

## CNC(=O)Oc1ccc2c(c1)[C@]1(C)CCN(C)[C@@H]1N2C [physostigmine]
[18]
  higher IC50 value, "atypical" versus wild-type: at least 10 fold
  higher Ki value, "atypical" versus wild-type: at least 10 fold
  sensitivity of atypical variant to inhibitors: much less sensitive
[10]
  rate of irreversible inactivation versus normal: much slower than its normal counterpart
[19]
  effect on cognitive functions: small, short-term positive effect on cognitive functions
[11]
  inactivation rate compared with AChE: higher than or equal to ACHE
  second order rate constant ki for inactivation: 6330 ± 2670 M⁻¹ s⁻¹
[12]; 45 minutes, AChE
  spontaneous reactivation, % of original activity: up to 90%
[15]
  inactivation rate of "atypical" BuChE, compared: considerably lower rates

## C[C@H]1CC[C@@H]2[C@@H](C)[C@H]3[C@H](C[C@H]4[C@@H]5CC=C6C[C@@H](O[C@@H]7O[C@H](CO)[C@H](O)[C@H](O[C@@H]8O[C@H](CO)[C@@H](O)[C@H](O)[C@H]8O)[C@H]7O[C@@H]7O[C@@H](C)[C@H](O)[C@@H](O)[C@H]7O)CC[C@]6(C)[C@H]5CC[C@]34C)N2C1 [α-solanine]
[1]; normal, read-out: IC50 for α-solanine
  IC50: 2.5 µM
[2]; Rec. BuChE G/G, read-out: IC50 α-solanine
  IC50: 171 µM
[3]; Serum BuChE D/D, read-out: IC50 α-solanine
  IC50: 2.88 ± 0.33 µM
[20]
  IC50: 3.54 ± 2.41 µM
[5]; Serum BuChE G/G, read-out: IC50 α-solanine
  IC50: 165 µM
[6]; Rec. BuChE D/D, read-out: IC50 α-solanine
  IC50: 1.95 ± 1.04 µM
[21]
  IC50: 3.61 ± 0.81 µM
[22]; "atypical"
  IC50: 170 µM
[22]; "atypical" vs normal
  IC50 difference for α-solanine: > 100 fold
[22]
  activity of "atypical" enzyme at high α-solanine: retains higher activity than the normal and the heterozygote enzymes
[22]; listed as α-solanidine
  activity of "atypical" enzyme at high α-solanine: shows higher activities than the normal, D70 enzyme
[22]; up to 10 μM
  inhibition of "atypical" enzyme by α-solanine: relatively inert

## Nc1c2c(nc3ccccc13)CCCC2 [tacrine, 1,2,3,4-tetrahydro-9 aminoacridine]
[23]
  effect of 1 μm of the drug: intermediate levels of activity
[24]
  patients with cholinergic side-effects / deficits: up to 15%
[24]; listed as THA
  patients with cholinergic side-effects / deficits: over 10%
[25]; 30 weeks
  improvement in AD: statistically significant, dose-related improvements
[25]; in 2% of the cases
  serum level of the aminotransferase: 20 times the upper limit of normal value
[25]; in vivo
  cases reaching 20 times the upper limit of normal aminotransferase: 2%
  serum level of the aminotransferase, usual: less than three times the upper limit of normal value
[26]
  PD symptoms: worsening of the symptoms

## CCCCOc1cc(C(=O)NCCN(CC)CC)c2ccccc2n1 [dibucaine]
[17]
  hydrolysis by the affected ("atypical") enzyme: inability

## C=CC[N+](C)(C)c1ccc(CCC(=O)CCc2ccc([N+](C)(C)CC=C)cc2)cc1 [BW284C51, 1,5-bis-(4-allyldimethylammoniumphenyl)-pentane-3-one dibromide]
[27]
  staining of term placenta: largely suppressed staining in term
[28]
  staining of early placenta sections: not early placenta

## CCN(C)C(=O)Oc1cccc([C@H](C)N(C)C)c1 [SDZ ENA-713]
[8]
  second order rate constant ki for inactivation: 71.7 M⁻¹ s⁻¹
[29]
  loss of activity: 80%
[10]; 30 minutes, "atypical" BuChE
  decrease in activity: about 40%
[10]
  rate of irreversible inactivation versus normal: much slower than its normal counterpart
[11]
  inactivation rate compared with AChE: higher than or equal to ACHE
  second order rate constant ki for inactivation: 233 ± 50 M⁻¹ s⁻¹
[30]
  loss of activity: 95%
[31]
  spontaneous reactivation, % of original activity: ≤ 8%
[13]
  second order rate constant ki for inactivation: 55 ± 10 M⁻¹ s⁻¹
[15]
  inactivation rate of "atypical" BuChE, compared: considerably lower rates

## CC[N+](C)(C)c1cccc(O)c1 [edrophonium]
[32]
  relief of symptoms: immediate, but brief, relief of the characteristic symptoms

## CC(C)NP(=O)(NC(C)C)OP(=O)(NC(C)C)NC(C)C [iso-OMPA, tetraisopropylpyrophosphoramide]
[18]
  sensitivity of atypical variant to inhibitors: much less sensitive
[27]
  staining of term placenta: no reduction in labeling intensity
[28]
  staining of early placenta sections: remained totally unlabeled
